Data from article PMC9064246 (RSC Advances, 2019).

Target: T1, Lactobacillus reuteri 121 inulosucrase (LrInu; InuΔ699His) (Limosilactobacillus reuteri, UniProt Q8GP32)
T1 sequence (Q8GP32 37-699 limits assumed): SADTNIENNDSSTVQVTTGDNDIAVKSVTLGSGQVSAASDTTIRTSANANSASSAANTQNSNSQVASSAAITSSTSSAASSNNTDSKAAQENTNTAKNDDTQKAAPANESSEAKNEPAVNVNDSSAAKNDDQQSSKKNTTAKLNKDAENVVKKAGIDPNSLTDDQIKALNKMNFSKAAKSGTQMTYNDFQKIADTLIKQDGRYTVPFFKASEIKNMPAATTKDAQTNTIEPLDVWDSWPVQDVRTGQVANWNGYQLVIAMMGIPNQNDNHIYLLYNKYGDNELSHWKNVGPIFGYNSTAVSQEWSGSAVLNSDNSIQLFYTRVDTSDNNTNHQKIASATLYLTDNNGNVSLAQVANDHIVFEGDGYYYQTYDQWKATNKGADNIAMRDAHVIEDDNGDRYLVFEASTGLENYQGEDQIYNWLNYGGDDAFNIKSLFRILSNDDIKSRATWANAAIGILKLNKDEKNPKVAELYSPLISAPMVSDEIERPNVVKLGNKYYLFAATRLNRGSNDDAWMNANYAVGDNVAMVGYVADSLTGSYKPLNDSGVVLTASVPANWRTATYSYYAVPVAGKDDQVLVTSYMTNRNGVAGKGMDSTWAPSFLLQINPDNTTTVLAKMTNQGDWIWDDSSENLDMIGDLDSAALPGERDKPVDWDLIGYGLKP
Experiment: FOS synthesis, TLC / HPLC / MALDI-TOF MS
Assay type: biochemical
Conditions: 0.5 M sucrose, 5 U/mL enzyme, 50 mM acetate pH 5.5, 30 °C, 24 h

OC[C@H]1O[C@@](CO)(O[C@H]2O[C@H](CO)[C@@H](O)[C@H](O)[C@H]2O)[C@@H](O)[C@@H]1O [sucrose] was tested, and the “FOS synthesis, TLC / HPLC / MALDI-TOF MS” value was “transglycosylation products of R483A, R483F, R483Y and R483W”.
